For the data set the following is noted: 298.15 K; 101.33 kPa; Liquid; Vibrating tube method.

One may read the mass density as the mass of a sample divided by its volume.

Molecules are shown by their SMILES. ± gives the expanded uncertainty stated by the source.

In the case of `CCCCCC` [hexane], the mass density was 655.19 ± 0.83 kg/m3.
